From patent publication US12502428B1, “Immunotherapeutic composition for prevention of obesity, nonalcoholic fatty liver disease and hypertriglyceridemia, and methods of use and preparation thereof” (Utopia Therapeutics Pvt Ltd., priority 2025, dated 2025) come the findings set out here.

Where no end group is shown, it is not given here.

The nature of data set [1]: Solubility of test item in phosphate buffered saline. It is filed as physicochemical. To be noted: in phosphate buffered saline (PBS; 1×). An excerpt: The dosage for rats extrapolated using standard guidelines.
(§1) IAEC approval: IAEC approval obtained for conducting the study; test item name: UT-GT-001; batch number: G2467-145; date of manufacture: 9 Nov.

Data set [2] concerns high-fat fed mice model. In words: Efficacy of the vaccine in high-fat fed mice model (diet induced obesity, DIO). It is filed as in vivo, mice - Balb/c.
Description: This model is often referred to as diet induced obesity (DIO) model.
as §1
The dosage for mice extrapolated using standard guidelines.
Formulation was freshly made just before dosing. […] Immunization of peptide is along with Freund's adjuvant by proper mixing. […] Once the drop test passed (the emulsion drop floated on water as intact), the final formulation was administered to mice with the volume of 300 μl.
Immunization and blood collection. After the acclimatization period, body weights of mice were recorded.
At every blood collection, 12 hours fasting was maintained for animals. […] Blood samples were given to the diagnostic center for different blood parameter analysis.

The subject of data set [3] is high-fat fed rat model. The experiment in a line: Efficacy of the vaccine in high-fat fed rat model.
Description: Species details: species: rats (Wistar); justification: the rats (Wistar) are recognized by the international guidelines as the recommended test system and considerable historical data is available; source: good quality, healthy animals were procured from Hylasco Biotechnology India Pvt Ltd, (Reg. No. 1808/PO/RcBt/S/15/CPCSEA); animal age at the time of randomization: 07-08 weeks; animal weight at the time of randomization: males: 170±20 grams.
Husbandry and diet composition: number of animals: a total number of 6 animals (6M) per group; animal identification: individual cage tags; housing: animals were housed in stainless steel cages, one animal per cage; diet: pelleted rodent feed ad libitum; temperature: 30° C.; humidity: 30 to 70%; light: 12 hours light and 12 hours dark; water: RO purified water, ad libitum; cleaning of cages: twice in a week; acclimatization: the period of acclimatization was a minimum of seven days in the experimental room after the veterinary examination.
Formulation was freshly made just before dosing. For the primer dose of vaccine 3 mg peptide was dissolved in 1 ml of 1×PBS sterile solution to make 3 mg/mL stock solution. 0.4 mL of stock solution was combined with 0.4 mL of complete Freund's adjuvant by vigorous vortexing. For booster doses, the same procedure was followed except that the stock solution was combined with an equal amount of incomplete Freund's adjuvant instead of complete Freund's adjuvant.
Once the drop test was passed (the emulsion drop floated on water intact), the final formulation was administered to rats at 50 μL at each site of injection.
After acclimatization period, body weights of rats were recorded. The rats were randomized based on body weight after quarantine period into two groups n=6 per group as disease control (6M) and treatment group (6M). The disease control and treatment groups were given a high fat diet ad libitum for 8 consecutive weeks while the treatment group received the vaccine doses by intramuscular route as per study design as weekly once dosing for 7 consecutive weeks.
Initial primer dose was given only once during the treatment initiation and the remaining 6 booster doses were administered weekly once to the treatment group animals. Sham group animals received a normal rodent diet fortified with fat. Blood samples were collected on week 0, week 2, week 4, week 6 and week 8 from animals and analyzed for fasting blood glucose, triglycerides, total cholesterol and lipid profile. At every blood collection, 12 hour fasting was maintained for animals. On the final necropsy day, animals were subjected to euthanasia and major organs like liver, heart, lungs, kidneys, testes, spleen, and epididymal fat were collected, weighed and recorded. Half portion of liver was stored immediately in liquid nitrogen and kept at −80° C. for oil red stain and the remaining half was stored in 10% formalin solution, which was taken for histological evaluation by hematoxylin and eosin (H & E) staining.
Blood was centrifuged at 40° C., 4000 RPM for 15 minutes to separate serum and plasma. The serum and plasma samples were analyzed for serum biochemistry and fasting blood glucose respectively. Remaining serum samples were stored at −80° C. until dispatch to the test facility.
General clinical observations were conducted twice daily and detailed clinical observations were conducted once daily.
Setting [4] is: throughout study duration, rats.

Take “GTX-SP-208: test item of the rat study: peptide, anti-hyperlipidemic agent, powder form, Galore Tx Pharmaceuticals; presumably the FATP1 peptide of the vaccine (MRAPGAGAASVVS)”: the solubility in data set [1] stood at 100%.
In the case of MRAPGAGAASVVS [vaccine, MRAPGAGAASVVS], in data set [2], the “abnormalities (clinical observation)” value was “No abnormalities were observed”, the adverse clinical signs result is “No adverse clinical signs were observed”, the “high fat diet intake” value is recorded as “normal” and the water intake entry is recorded as “normal”. In data set [3] (8 week study), the “critical organ weights (toxicology analysis)” value is “no changes”; the “hematocrit (toxicology analysis)” value is “no changes”; the “liver function (AST and ALT) (toxicology analysis)” value was “improvement”. Also, in data set [3] (clinical observations, rats), the adverse clinical signs result is “no adverse clinical signs were observed”; the hand held observations entry was “responded normally”; the home cage observations result is on record as “no abnormalities were observed”; the “nervous and muscle measurements and other observations” value is reported as “No abnormalities observed”. Besides, in data set [3] (setting [4]), the open field activity entry is reported as “normal” and the stimulus response entry is on record as “normal”.
Take “UT-GT-001: test item of the mice study: peptide, anti-hyperlipidemic agent, powder form, Galore Tx Pharmaceuticals; presumably the FATP1 peptide of the vaccine (MRAPGAGAASVVS)”: in data set [1], the solubility is 100%.
